According to patent publication US20040071328A1, “Classifying cells based on information contained in cell images” (priority 2003, published 2004):

System: Cell Line A549 (human lung cancer epithelial cells)
Experiment: Cell cycle characterization of Taxol-treated A549 cells by image analysis of DAPI-stained DNA
Assay type: cell-based
Procedure: FIGS. 14A-14G depict the results of an experiment in which human lung cancer epithelial cells were treated with Taxol and the effect of Taxol on the cell cycle was characterized. The specific cells used in this study were from Cell Line A549 (human lung cancer epithelial cells) (ATCC:CCL-185). Two day staged cell cultures of the A549 cells were trypsinized for five minutes from T175 cm flasks. The cells were then suspended in ten milliliters of RPMI media with ten percent serum and counted using both a hemocytometer and Coulter Counter. The suspension was diluted further in media to ensure that there were 1600 cells per twenty microliters in suspension. The cells were then counted again. Thereafter, they were transferred to a Cell Stir and kept in suspension while being plated into barcoded 384 well plates using a MultiDrop at twenty microliters per well. The plates were transferred to a humidified carbon dioxide incubator to recover for twenty-four hours before the addition of Taxol or DMSO. Prior to imaging the cells were treated with DAPI to stain DNA. Cells from each well were then imaged.
Of relevance to this example, eight wells were treated with Taxol at varying concentrations and eight other “control” wells were treated with DMSO, which is not toxic to the cells under consideration. The concentration of Taxol varied from approximately 0.09 micromolar to 200 micromolar. […] Cells in each of the eight Taxol wells were separately imaged and the total measured intensity in each cell was recorded. As discussed above, the total intensity corresponds to the amount of DNA in each cell. In the histogram, the cell count has been normalized so that the area under each curve was equal to a value of one.
The data used to produce the histogram of FIG. 14B was taken from the same images of the eight Taxol containing wells used to produce the histogram of FIG. 14A. In this histogram, the mitotic discriminator is defined as log2(average intensity) minus log2(area).
The five phases are G1, S, G2, m (telophase), and M (prophase, metaphase, and anaphase). […]

Compound: CC(=O)O[C@H]1C(=O)[C@@]2(C)[C@H]([C@H](OC(=O)c3ccccc3)[C@]3(O)C[C@H](OC(=O)[C@H](O)[C@@H](NC(=O)c4ccccc4)c4ccccc4)C(C)=C1C3(C)C)[C@]1(OC(C)=O)CO[C@@H]1C[C@@H]2O [Taxol]
- distribution of cells based upon the amount of DNA contained in each cell (log2 total intensity histogram; G1 vs G2 peaks) (Taxol approximately 0.09 micromolar to 200 micromolar, eight wells, DAPI stain, FIG. 14A): arrests cells in the G2 phase
- mitotic discriminator (log2(average intensity) minus log2(area)); relative incidence of mitotic vs interphase cells (Taxol approximately 0.09 to 200 micromolar, FIG. 14B): greatly increase the relative incidence of mitotic cells
- number of objects divided by the average number of DMSO objects ("o" curve; objects correspond to living cells) (Taxol approximately 0.09 to 200 micromolar, FIG. 14C): decreases with increasing concentration of Taxol
